For 80 substances, target inhibition results are on record in the OligoGym collection.

Only the 19 paired bases of each siRNA are shown; overhangs and chemistry are not given here.

In data set [1] the target is PPIB. Nature of the data set: five studies, different assays. To be noted: siRNA.
For data set [2], the target named is firefly luciferase. Nature of the data set: five studies, different assays. As to conditions: siRNA.
Note: test concentration or dose not given here.

“sense GAGAAAGGAUUUGGCUACA / antisense UGUAGCCAAAUCCUUUCUC”: the target inhibition in data set [1] stood at 92.3%.

In the case of “sense CUUCAAACUGAAGCACUAC / antisense GUAGUGCUUCAGUUUGAAG”, the target inhibition in data set [1] came to 73.1%.

Turning to “sense CAUCUACGGUGAGCGCUUC / antisense GAAGCGCUCACCGUAGAUG”, the target inhibition in data set [1] is 89%.

As for “sense AGAACUUCAAACUGAAGCA / antisense UGCUUCAGUUUGAAGUUCU”, the target inhibition in data set [1] was found to be 45.4%.

As to “sense UUAGCUACAGGAGAGAAAG / antisense CUUUCUCUCCUGUAGCUAA”, the target inhibition in data set [1] came out at 30.7%.

Consider “sense AACAGUGGAUAAUUUUGUG / antisense CACAAAAUUAUCCACUGUU”, for which the target inhibition in data set [1] was found to be 16.3%.

Consider “sense AAUUCCAUCGUGUAAUCAA / antisense UUGAUUACACGAUGGAAUU”, for which, in data set [1], the target inhibition was 87.4%.

Regarding “sense UCUACGGUGAGCGCUUCCC / antisense GGGAAGCGCUCACCGUAGA”, in data set [1], the target inhibition was 2.8%.

“sense AAAGAGCAUCUACGGUGAG / antisense CUCACCGUAGAUGCUCUUU”: in data set [1], the target inhibition is 50.7%.

On to “sense UCAUGAUCCAGGGCGGAGA / antisense UCUCCGCCCUGGAUCAUGA”, for which the target inhibition in data set [1] was found to be 92.8%.

As for “sense UCCAGGGCGGAGACUUCAC / antisense GUGAAGUCUCCGCCCUGGA”, in data set [1], the target inhibition worked out at 41.8%.

Regarding “sense UUGUGGCCUUAGCUACAGG / antisense CCUGUAGCUAAGGCCACAA”, the target inhibition in data set [1] came to 16%.

“sense ACUUCACCAGGGGAGAUGG / antisense CCAUCUCCCCUGGUGAAGU”: in data set [1], the target inhibition stood at 41.9%.

On to “sense AAAAACAGCAAAUUCCAUC / antisense GAUGGAAUUUGCUGUUUUU”, for which the target inhibition in data set [1] came out at 7.6%.

For the substance “sense AUAAUUUUGUGGCCUUAGC / antisense GCUAAGGCCACAAAAUUAU”, in data set [1], the target inhibition came out at 32.8%.

“sense UUCCAUCGUGUAAUCAAGG / antisense CCUUGAUUACACGAUGGAA”: the target inhibition in data set [1] was 45.9%.

For the substance “sense CCCCGAUGAGAACUUCAAA / antisense UUUGAAGUUCUCAUCGGGG”, the target inhibition in data set [1] is 84.7%.

For the substance “sense GGGCGGAGACUUCACCAGG / antisense CCUGGUGAAGUCUCCGCCC”, the target inhibition in data set [1] is 89%.

“sense AGCAAAUUCCAUCGUGUAA / antisense UUACACGAUGGAAUUUGCU”: the target inhibition in data set [1] was 86.4%.

With “sense CCUUAGCUACAGGAGAGAA / antisense UUCUCUCCUGUAGCUAAGG”, in data set [1], the target inhibition was found to be 77.2%.

For the substance “sense CUACAAAAACAGCAAAUUC / antisense GAAUUUGCUGUUUUUGUAG”, in data set [1], the target inhibition turned out to be 71.2%.

“sense UCAAACUGAAGCACUACGG / antisense CCGUAGUGCUUCAGUUUGA”: in data set [1], the target inhibition stood at 18.1%.

For “sense GAUGAGAACUUCAAACUGA / antisense UCAGUUUGAAGUUCUCAUC”, in data set [1], the target inhibition came to 89.7%.

Consider “sense GUUGGCAGAAGCUAUGAAA / antisense UUUCAUAGCUUCUGCCAAC”, for which the target inhibition in data set [2] amounted to 93.1%.

In the case of “sense CGCCAGUCAAGUAACAACC / antisense GGUUGUUACUUGACUGGCG”, the target inhibition in data set [2] was 79.5%.

As for “sense ACGCCAAAAACAUAAAGAA / antisense UUCUUUAUGUUUUUGGCGU”, the target inhibition in data set [2] worked out at 94.9%.

Take “sense AUUAUCAUGGAUUCUAAAA / antisense UUUUAGAAUCCAUGAUAAU”: the target inhibition in data set [2] was 55.5%.

With “sense GUACCGAAAGGUCUUACCG / antisense CGGUAAGACCUUUCGGUAC”, in data set [2], the target inhibition was 80.4%.

Take “sense GCCGCCGUUGUUGUUUUGG / antisense CCAAAACAACAACGGCGGC”: in data set [2], the target inhibition came to 13.8%.

For the substance “sense GAUUACGUCGCCAGUCAAG / antisense CUUGACUGGCGACGUAAUC”, the target inhibition in data set [2] was found to be 96%.

Regarding “sense AAGGCCCGGCGCCAUUCUA / antisense UAGAAUGGCGCCGGGCCUU”, the target inhibition in data set [2] is 23%.

“sense CCAGUCAAGUAACAACCGC / antisense GCGGUUGUUACUUGACUGG”: the target inhibition in data set [2] was 66.1%.

On to “sense GACGCCAAAAACAUAAAGA / antisense UCUUUAUGUUUUUGGCGUC”, for which the target inhibition in data set [2] was 85.8%.

“sense CCGCGAACGACAUUUAUAA / antisense UUAUAAAUGUCGUUCGCGG”: the target inhibition in data set [2] amounted to 94.9%.

For “sense CAAAUACGAUUUAUCUAAU / antisense AUUAGAUAAAUCGUAUUUG”, the target inhibition in data set [2] is 87.8%.

For “sense ACGGAAAAAGAGAUCGUGG / antisense CCACGAUCUCUUUUUCCGU”, in data set [2], the target inhibition was 58.8%.

In the case of “sense GUUGUUGUUUUGGAGCACG / antisense CGUGCUCCAAAACAACAAC”, in data set [2], the target inhibition amounted to 32.6%.

Regarding “sense CAACCGCGAAAAAGUUGCG / antisense CGCAACUUUUUCGCGGUUG”, in data set [2], the target inhibition was -1.3%.

For the substance “sense CCGGAUACUGCGAUUUUAA / antisense UUAAAAUCGCAGUAUCCGG”, the target inhibition in data set [2] was 96.3%.

With “sense AGAGAUCCUCAUAAAGGCC / antisense GGCCUUUAUGAGGAUCUCU”, in data set [2], the target inhibition amounted to 38.7%.

On to “sense UGGACGAAGUACCGAAAGG / antisense CCUUUCGGUACUUCGUCCA”, for which the target inhibition in data set [2] was found to be 70.3%.

As to “sense GAUGAUAAACCGGGCGCGG / antisense CCGCGCCCGGUUUAUCAUC”, in data set [2], the target inhibition came out at 52.9%.

Take “sense GACAAAUACGAUUUAUCUA / antisense UAGAUAAAUCGUAUUUGUC”: in data set [2], the target inhibition was 86.5%.

In the case of “sense UGUGGACGAAGUACCGAAA / antisense UUUCGGUACUUCGUCCACA”, the target inhibition in data set [2] amounted to 77.8%.

For “sense AUCCUCAUAAAGGCCAAGA / antisense UCUUGGCCUUUAUGAGGAU”, in data set [2], the target inhibition is -12.8%.

In the case of “sense AGAUCGUGGAUUACGUCGC / antisense GCGACGUAAUCCACGAUCU”, the target inhibition in data set [2] came to 67%.

In the case of “sense AAGUAACAACCGCGAAAAA / antisense UUUUUCGCGGUUGUUACUU”, in data set [2], the target inhibition turned out to be 76.6%.

As to “sense CGCCGUUGUUGUUUUGGAG / antisense CUCCAAAACAACAACGGCG”, the target inhibition in data set [2] was 74.8%.

For the substance “sense UUGCGCGGAGGAGUUGUGU / antisense ACACAACUCCUCCGCGCAA”, the target inhibition in data set [2] is 24.9%.

“sense AAGAAAAAUCAGAGAGAUC / antisense GAUCUCUCUGAUUUUUCUU”: the target inhibition in data set [2] came out at 68.1%.

Turning to “sense CCCGCCGCCGUUGUUGUUU / antisense AAACAACAACGGCGGCGGG”, the target inhibition in data set [2] was 42.3%.

Turning to “sense AAAGAGAUCGUGGAUUACG / antisense CGUAAUCCACGAUCUCUUU”, the target inhibition in data set [2] is 47.4%.

Consider “sense AUCCGCUGGAAGAUGGAAC / antisense GUUCCAUCUUCCAGCGGAU”, for which the target inhibition in data set [2] came out at 23.4%.

As for “sense AACUUCCCGCCGCCGUUGU / antisense ACAACGGCGGCGGGAAGUU”, the target inhibition in data set [2] is 18.4%.

“sense GAAAAAUCAGAGAGAUCCU / antisense AGGAUCUCUCUGAUUUUUC”: the target inhibition in data set [2] was found to be 86.8%.

Turning to “sense AGGUCUUACCGGAAAACUC / antisense GAGUUUUCCGGUAAGACCU”, the target inhibition in data set [2] was 90.1%.

On to “sense GUAACAACCGCGAAAAAGU / antisense ACUUUUUCGCGGUUGUUAC”, for which the target inhibition in data set [2] stood at 85.5%.

Regarding “sense AAAGUUGCGCGGAGGAGUU / antisense AACUCCUCCGCGCAACUUU”, in data set [2], the target inhibition came to 95.5%.

Turning to “sense CCGGAAAACUCGACGCAAG / antisense CUUGCGUCGAGUUUUCCGG”, the target inhibition in data set [2] was 94.9%.

Take “sense AUCGUGGAUUACGUCGCCA / antisense UGGCGACGUAAUCCACGAU”: in data set [2], the target inhibition came out at 44.2%.

Take “sense CAUUCUAUCCGCUGGAAGA / antisense UCUUCCAGCGGAUAGAAUG”: the target inhibition in data set [2] came out at 93.2%.

As for “sense GCCUGAAGUCUCUGAUUAA / antisense UUAAUCAGAGACUUCAGGC”, the target inhibition in data set [2] amounted to 95.6%.

On to “sense GGGCGCGGUCGGUAAAGUU / antisense AACUUUACCGACCGCGCCC”, for which the target inhibition in data set [2] worked out at 93.6%.

In the case of “sense AGUCAAGUAACAACCGCGA / antisense UCGCGGUUGUUACUUGACU”, the target inhibition in data set [2] came out at 88.5%.

Turning to “sense UUCUGAUUACACCCGAGGG / antisense CCCUCGGGUGUAAUCAGAA”, in data set [2], the target inhibition is 10.7%.

For the substance “sense GGAAAGACGAUGACGGAAA / antisense UUUCCGUCAUCGUCUUUCC”, in data set [2], the target inhibition turned out to be 87.6%.

On to “sense GAUAUGGGCUGAAUACAAA / antisense UUUGUAUUCAGCCCAUAUC”, for which, in data set [2], the target inhibition is 91.9%.

With “sense UUUGUGGACGAAGUACCGA / antisense UCGGUACUUCGUCCACAAA”, the target inhibition in data set [2] was -18%.

Consider “sense AUGGAACCGCUGGAGAGCA / antisense UGCUCUCCAGCGGUUCCAU”, for which the target inhibition in data set [2] amounted to 35.4%.

Regarding “sense GCAUGCCAGAGAUCCUAUU / antisense AAUAGGAUCUCUGGCAUGC”, the target inhibition in data set [2] came to 94.5%.

As for “sense GUGUUGGGCGCGUUAUUUA / antisense UAAAUAACGCGCCCAACAC”, the target inhibition in data set [2] was 91.9%.

Turning to “sense GCAAGAAAAAUCAGAGAGA / antisense UCUCUCUGAUUUUUCUUGC”, in data set [2], the target inhibition is 95.1%.

As to “sense GGUAAAGUUGUUCCAUUUU / antisense AAAAUGGAACAACUUUACC”, in data set [2], the target inhibition was 94.5%.

In the case of “sense GCGGAGGAGUUGUGUUUGU / antisense ACAAACACAACUCCUCCGC”, in data set [2], the target inhibition came out at 92.3%.

For the substance “sense GGAAAAAGAGAUCGUGGAU / antisense AUCCACGAUCUCUUUUUCC”, the target inhibition in data set [2] is 91.3%.

As to “sense AACAACCGCGAAAAAGUUG / antisense CAACUUUUUCGCGGUUGUU”, in data set [2], the target inhibition was -5.7%.

On to “sense UGUUGUUUUGGAGCACGGA / antisense UCCGUGCUCCAAAACAACA”, for which, in data set [2], the target inhibition stood at 82.5%.

“sense GGAGGAGUUGUGUUUGUGG / antisense CCACAAACACAACUCCUCC”: the target inhibition in data set [2] was found to be 93.2%.

For the substance “sense GAUUUCGAGUCGUCUUAAU / antisense AUUAAGACGACUCGAAAUC”, the target inhibition in data set [2] is 98.9%.

On to “sense UCCGGAAGCGACCAACGCC / antisense GGCGUUGGUCGCUUCCGGA”, for which, in data set [2], the target inhibition turned out to be 89.7%.
